Patent US5696155A, “Dibenz[b,e]oxepin derivatives and pharmaceutical agents which contain them” (Boehringer Mannheim BmbH, priority 1993, dated 1997)

Target: T1, human recombinant type II PLA2 (=synovial PLA2) (Homo sapiens, UniProt P14555)
T1 sequence (P14555 21-144): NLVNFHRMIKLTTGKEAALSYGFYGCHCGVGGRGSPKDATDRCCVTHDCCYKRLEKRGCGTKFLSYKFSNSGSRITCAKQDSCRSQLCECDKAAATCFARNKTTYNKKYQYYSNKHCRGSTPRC
Test: Inhibition of PLA2 activity (sPLA2 enzyme activity, in vitro)
Type: biochemical
Conditions: means of 3 experiments (duplicate determinations); for inhibition at 1 µg/mL: concentration 1 μg/ml; for inhibition at 0.1 µg/mL: concentration 0.1 μg/ml; for inhibition at 10 µg/mL: concentration 10 μg/ml
Excerpt: Inhibition of PLA2 activity
The human recombinant type II PLA2 (=synovial PLA2) as a typical representative of a PLA2 was used for the test.
This documents the superiority of the new sPLA2 inhibitors compared to a cyclooxygenase inhibitor.

| inhibition at 1 µg/mL | inhibition at 0.1 µg/mL | inhibition at 10 µg/mL | Compound |
| --- | --- | --- | --- |
| 52% | 28% | 61% | CCOC(=O)c1cc(=O)c2c3c(ccc2o1)C(=O)c1ccc(O)cc1CO3 [Ex.2a), 7,12-dihydro-10-hydroxy-1H-4,13-dioxabenzo[4,5]cyclohepta[1,2-a]-naphthalene-1,7-dione-3-carboxylic acid-ethyl ester] |
| 73% | 12% | 78% | CCOC(=O)c1cc(=O)c2cc3c(cc2o1)OCc1cc(O)ccc1C3=O [Ex.2c), 7,13-dihydro-2-hydroxy-5H-10,12-dioxabenzo[4,5]cyclohepta[1,2-b]-naphthalen-5,7-dione-9-carboxylic acid ethyl ester] |
| 17% | 16% | 49% | CCCCCCCCOc1ccc2c(c1)COc1c(cc3c(=O)cc(C(=O)OCC)oc3c1CCC)C2=O [Ex.4a), 7,13-dihydro-2-octyloxy-11-propyl-5H-10,12-dioxabenzo-[4,5]cyclo-hepta[1,2-b]naphthalen-5,7-dione-9-carboxylic acid ethyl ester] |

| Compound | inhibition at 1 µg/mL | inhibition at 0.1 µg/mL | inhibition at 10 µg/mL |
| --- | --- | --- | --- |
| COc1ccc2c(c1)c(CC(=O)O)c(C)n2C(=O)c1ccc(Cl)cc1 [Indomethacin, reference compound] | 0% |  |  |
